Data on ten compounds can be found in US11407736B2 (priority 2019, dated 2022).

Where two headings read alike, the source gives them in different places.

Series [1] is described as follows: in vivo pharmacokinetics, plasma and brain exposure. The note with it: for Kp: rodents.
Source text: Brain penetration may be assessed by evaluating free brain/plasma ratio (Bu/Pu) as measured in vivo pharmacokinetic studies in rodents.
In a further series the target is RIPK1 (Homo sapiens (Human), UniProt Q13546). Nature of the series: RIPK1 ADP-Glo biochemical kinase assay. The settings on record: read-out: RIPK1 ADP-Glo Kinase (IC50). Here is the method:
The final reaction volume was 5.0ul.
Adding 5 μl of ADP-Glo™ terminated the reaction.

Another series relates to L929 cells. Briefly: L929 cell necroptosis assay (TNFa + zVAD, CellTiter-Glo). Format: cell-based, murine. Summed up: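 Murine L929 cells, plated 18 h beforehand at 10K cells/well in RPMI 1640 with 10% FBS, were switched to medium containing 40 uM zVAD-fmk and given compound from 4-fold serial dilutions. Viability after 18 h of TNFa stimulation at 37° C was read by CellTiter-Glo luminescence.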
(In general: In ATP-based viability assays light output follows the ATP content of the culture.)

A further series concerns U937 cells. Briefly: U937 cell necroptosis assay (TNFa + zVAD, CellTiter-Glo). Format: cell-based, human. The note with it: Homo sapiens. The procedure, abridged:
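Human U937 and murine L929 cells in RPMI 1640/10% FBS were pre-incubated 1 h at 37 °C with serially diluted compound plus zVAD-fmk (U937 plated with 60 uM, L929 medium with 40 uM), then stimulated with 2 ng/mL TNFa (final). Viability read by CellTiter-Glo luminescence after 18 h.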

The test system of series [2] is TNF-alpha induced hypothermia. The note with it: dose of 30 mg/kg, according to WO 2014/125444; cited from earlier work.
The mark [3] stands for this setting: U-937, read-out: U937 Zvad TNF CTG Recovery, U937, TNFa + zVAD (IC50), U937 cells, TNFa + zVAD.
Setting [4] is: Mus musculus, L929, L929 cells, TNFa + zVAD, read-out: L929-CTG-recovery, L929, TNFa + zVAD (IC50).
Where [5] appears, read: U-937, U937 cells, TNFa + zVAD, read-out: U937 Zvad TNF CTG Recovery, U937, TNFa + zVAD (IC50).

RIPK1, sequence (Q13546 whole entry, species assumed): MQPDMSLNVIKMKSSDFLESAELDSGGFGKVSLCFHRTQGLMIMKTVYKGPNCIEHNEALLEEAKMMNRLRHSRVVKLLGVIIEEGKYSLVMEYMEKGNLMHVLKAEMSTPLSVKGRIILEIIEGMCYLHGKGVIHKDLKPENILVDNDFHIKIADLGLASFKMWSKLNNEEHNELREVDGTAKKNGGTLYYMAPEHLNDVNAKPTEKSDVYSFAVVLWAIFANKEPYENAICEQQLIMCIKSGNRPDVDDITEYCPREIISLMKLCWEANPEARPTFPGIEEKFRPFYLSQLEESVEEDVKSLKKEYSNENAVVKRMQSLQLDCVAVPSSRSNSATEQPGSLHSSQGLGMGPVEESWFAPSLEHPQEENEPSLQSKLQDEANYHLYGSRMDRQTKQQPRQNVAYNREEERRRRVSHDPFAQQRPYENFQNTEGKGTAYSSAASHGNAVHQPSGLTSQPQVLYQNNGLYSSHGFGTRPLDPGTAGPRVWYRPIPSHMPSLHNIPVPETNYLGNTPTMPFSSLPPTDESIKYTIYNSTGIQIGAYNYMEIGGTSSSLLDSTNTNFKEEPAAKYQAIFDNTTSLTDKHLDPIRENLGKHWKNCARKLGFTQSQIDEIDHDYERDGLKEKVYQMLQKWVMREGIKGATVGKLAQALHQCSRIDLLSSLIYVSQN

A word on the Kp: it is the ratio of the level in a tissue or fluid to that in plasma or blood. Take `CN1C(=O)C(NC(=O)n2cc(Cc3ccccc3)cn2)CCc2ccc(N3CC4(CCOCC4)C3)cc21` (racemic) [Compound I-182, (±)-4-Benzyl-N-(1-methyl-2-oxo-8-(7-oxa-2-azaspiro[3.5]nonan-2-yl)-2,3,4,5-tetrahydro-1H-benzo[b]azepin-3-yl)-1-pyrazole-1-carboxamide]: the “BRAIN AUC0-6” value in series [1] came to 157. The Kp in series [1] (in vivo) was determined as 0.56.
`CN1C(=O)[C@@H](NC(=O)n2cc(Cc3ccc(F)cc3)cn2)COc2ccc(C#CC3(C)COC3)cc21` [Compound I-180, (S)-4-(4-fluorobenzyl)-N-(5-methyl-7-((3-methyloxetan-3-yl)ethynyl)-4-oxo-2,3,4,5-tetrahydrobenzo[b][1,4]oxazepin-3-yl)-1H-pyrazole-1-carboxamide]: the “BRAIN AUC0-6” value in series [1] amounted to 251. In addition, the Kp in series [1] (brain/plasma) stood at 2.44.
The IC50 is the concentration that inhibits the measured activity by half. Take `CN1C(=O)[C@@H](NC(=O)c2cc(Oc3ccccc3)ccn2)COc2ccc(C#CC(C)(C)N)cc21` [Compound I-139, (S)—N-(7-(3-amino-3-methylbut-1-yn-1-yl)-5-methyl-4-oxo-2,3,4,5-tetrahydrobenzo[b][1,4]oxazepin-3-yl)-4-phenoxypicolinamide]: the IC50 was 0.0212 µM on RIPK1; 0.538 µM in the series with L929 cells (read-out: L929-CTG-recovery, L929, TNFa + zVAD (IC50), L929 cells, TNFa + zVAD); 0.0077 µM in the series on U937 cells (setting [3]). Further, in series [1], the “BRAIN AUC0-6” value worked out at 1100. Besides, the Kp in series [1] (brain/plasma) was found to be 1.29.
Regarding `CN1C(=O)[C@@H](NC(=O)c2cc(Oc3ccccc3)ccn2)COc2ccc(C#CC3(C)COC3)cc21` [Compound I-127, (S)—N-(5-methyl-7-((3-methyloxetan-3-yl)ethynyl)-4-oxo-2,3,4,5-tetrahydrobenzo[b][1,4]oxazepin-3-yl)-4-phenoxypicolinamide], the IC50 on RIPK1 came to 0.0296 µM; with L929 cells (Mus musculus, L929, read-out: L929-CTG-recovery, L929, TNFa + zVAD (IC50), L929 cells, TNFa + zVAD), 0.0406 µM; in the series with U937 cells (setting [3]), 0.0003 µM. Besides, the “BRAIN AUC0-6” value in series [1] was 160. This compound also yielded a Kp in series [1] (brain/plasma) of 0.98.
For `COC1(C#Cc2ccc3c(c2)N(C)C(=O)[C@@H](NC(=O)c2cc(Oc4ccccc4)ccn2)CO3)CN(C)C1` [Compound I-155, (S)—N-(7-((3-methoxy-1-methylazetidin-3-yl)ethynyl)-5-methyl-4-oxo-2,3,4,5-tetrahydrobenzo[b][1,4]oxazepin-3-yl)-4-phenoxypicolinamide], the IC50 on RIPK1 was found to be 0.0246 µM; in the series with L929 cells (setting [4]), 0.313 µM; in the series on U937 cells (setting [5]) it was 0.0013 µM. Besides, in series [1], the “BRAIN AUC0-6” value turned out to be 373. For the same compound, the Kp in series [1] (brain/plasma) came out at 1.7.
Take `CN1C(=O)[C@@H](NC(=O)n2cc(Cc3ccc(F)cc3)cn2)COc2ccc(N3CC4(CCOCC4)C3)cc21` [Compound I-184, (S)-4-(4-fluorobenzyl)-N-(5-methyl-4-oxo-7-(7-oxa-2-azaspiro[3.5]nonan-2-yl)-2,3,4,5-tetrahydrobenzo[b][1,4]oxazepin-3-yl)-1H-pyrazole-1-carboxamide]: the “BRAIN AUC0-6” value in series [1] is listed as 731. This compound gave a Kp in series [1] (in vivo) of 0.93.
The matching figures for `CN1C(=O)[C@@H](NC(=O)c2nn(Cc3ccccc3)cc2F)COc2ccc(N3CCC4(CCOCC4)C3)cc21` [Compound I-181, (S)-1-Benzyl-4-fluoro-N-(5-methyl-4-oxo-7-(8-oxa-2-azaspiro[4.5]decan-2-yl)-2,3,4,5-tetrahydrobenzo[b][1,4]oxazepin-3-yl)-1H-pyrazole-3-carboxamide]: 456 and 0.46.
Consider `CN1C(=O)[C@@H](NC(=O)c2nnc(Cc3ccccc3)[nH]2)COc2ccccc21` [(S)-5-benzyl-N-(5-methyl-4-oxo-2,3,4,5-tetrahydrobenzo[b][1,4]oxazepin-3-yl)-4H-1,2,4-triazole-3-carboxamide], for which, in series [2], the “inhibition of TNF-alpha induced hypothermia” value was 93%.
Turning to `Cc1cccc(C#Cc2ccc3c(c2)N(C)C(=O)[C@@H](NC(=O)n2cc(Cc4ccc(F)cc4)cn2)CO3)n1` [Compound I-183, (S)-4-(4-fluorobenzyl)-N-(5-methyl-7-((6-methylpyridin-2-yl)ethynyl)-4-oxo-2,3,4,5-tetrahydrobenzo[b][1,4]oxazepin-3-yl)-1H-pyrazole-1-carboxamide], in series [1], the “BRAIN AUC0-6” value turned out to be 326. The compound further yielded a Kp in series [1] (brain/plasma) of 0.9.
Consider `CN1C(=O)[C@@H](NC(=O)c2n[nH]c(Cc3ccccc3)n2)COc2cc(C#CC3(O)COC3)ccc21` [Compound I-73, (S)-5-benzyl-N-(8-((3-hydroxyoxetan-3-yl)ethynyl)-5-methyl-4-oxo-2,3,4,5-tetrahydrobenzo[b][1,4]oxazepin-3-yl)-1H-1,2,4-triazole-3-carboxamide], for which the values for the IC50 on RIPK1, in the series on L929 cells (setting [4]) and in the series on U937 cells (setting [5]) were 0.0429 µM, 0.0027 µM and 0.0117 µM, respectively.
